Data from ChEMBL document CHEMBL1134245, “Two novel and potent 3-[(o-methoxyphenyl)piperazinylethyl]-5-phenylthien” (Bioorg Med Chem Lett, 2001).

biological target: T1, Alpha-1D adrenergic receptor (Rattus norvegicus, UniProt P23944); assay: Binding affinity towards rat Alpha-1D adrenergic receptor; conditions: not given
T1 sequence (P23944 whole entry): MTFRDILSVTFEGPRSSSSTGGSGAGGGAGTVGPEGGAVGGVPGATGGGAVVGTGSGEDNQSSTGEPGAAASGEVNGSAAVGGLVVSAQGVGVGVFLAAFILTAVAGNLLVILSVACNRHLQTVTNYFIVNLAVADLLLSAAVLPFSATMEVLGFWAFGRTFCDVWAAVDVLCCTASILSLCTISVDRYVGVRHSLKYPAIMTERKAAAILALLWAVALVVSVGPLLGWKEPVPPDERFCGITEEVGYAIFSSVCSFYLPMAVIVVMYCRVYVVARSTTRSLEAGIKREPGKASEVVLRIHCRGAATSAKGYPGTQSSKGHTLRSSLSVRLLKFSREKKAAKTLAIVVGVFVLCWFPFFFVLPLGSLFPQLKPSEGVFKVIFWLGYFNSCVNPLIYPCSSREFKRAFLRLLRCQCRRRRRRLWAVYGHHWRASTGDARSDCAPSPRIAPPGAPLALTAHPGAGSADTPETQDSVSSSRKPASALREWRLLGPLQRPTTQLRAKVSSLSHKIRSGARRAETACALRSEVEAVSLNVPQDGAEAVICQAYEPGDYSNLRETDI

First: COc1ccccc1N1CCN(CCn2c(=O)[nH]c3sccc3c2=O)CC1
Second: COc1ccccc1N1CCN(CCn2c(=O)[nH]c3sc(-c4ccccc4)cc3c2=O)CC1
The Ki of the first is 1.6-fold lower: 0.229 nM for the first, 0.361 nM for the second. The first binds more tightly here.

Going from `COc1ccccc1N1CCN(CCn2c(=O)[nH]c3sc(C)c(-c4ccccc4)c3c2=O)CC1` to `COc1ccccc1N1CCN(CCCn2c(=O)[nH]c3scc(-c4ccccc4)c3c2=O)CC1`, the Ki rises from 0.251 nM to 8.2 nM (33-fold).

`COc1ccccc1N1CCN(CCn2c(=O)c3c(-c4ccccc4)csc3n(C)c2=O)CC1` gave a Ki of 0.71 nM.

biological target: T2, Alpha-1A adrenergic receptor (Rattus norvegicus, UniProt P43140); assay: Binding affinity towards rat Alpha-1A adrenergic receptor; conditions: not given
T2 sequence (P43140 whole entry): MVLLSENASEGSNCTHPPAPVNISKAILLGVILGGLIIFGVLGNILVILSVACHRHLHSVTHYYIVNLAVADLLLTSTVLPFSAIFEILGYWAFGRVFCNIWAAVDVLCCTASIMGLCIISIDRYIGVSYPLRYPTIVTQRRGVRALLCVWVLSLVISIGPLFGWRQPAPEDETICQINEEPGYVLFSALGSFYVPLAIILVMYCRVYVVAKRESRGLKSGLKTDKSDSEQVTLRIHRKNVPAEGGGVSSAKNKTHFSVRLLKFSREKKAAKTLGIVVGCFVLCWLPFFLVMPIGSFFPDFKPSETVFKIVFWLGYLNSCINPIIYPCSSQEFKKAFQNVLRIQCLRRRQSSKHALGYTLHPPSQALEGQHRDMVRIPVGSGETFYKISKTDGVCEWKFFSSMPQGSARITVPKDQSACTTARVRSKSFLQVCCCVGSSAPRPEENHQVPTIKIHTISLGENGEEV

`COc1ccccc1N1CCN(CCn2c(=O)[nH]c3sccc3c2=O)CC1` and `COc1ccccc1N1CCN(CCn2c(=O)[nH]c3sc(-c4ccccc4)cc3c2=O)CC1` are within 1.5-fold of each other in Ki: 0.523 nM for the first, 0.578 nM for the second.

Going from `COc1ccccc1N1CCN(CCn2c(=O)[nH]c3sc(C)c(-c4ccccc4)c3c2=O)CC1` to `COc1ccccc1N1CCN(CCCn2c(=O)[nH]c3scc(-c4ccccc4)c3c2=O)CC1`, the Ki rises from 1.97 nM to 9.58 nM (4.9-fold).

Work on `COc1ccccc1N1CCN(CCn2c(=O)c3c(-c4ccccc4)csc3n(C)c2=O)CC1` yielded a Ki of 2.62 nM.

biological target: T3, Alpha-1D adrenergic receptor (Homo sapiens, UniProt P25100); assay: Binding affinity towards human Alpha-1D adrenergic receptor; conditions: not given
T3 sequence (P25100 whole entry): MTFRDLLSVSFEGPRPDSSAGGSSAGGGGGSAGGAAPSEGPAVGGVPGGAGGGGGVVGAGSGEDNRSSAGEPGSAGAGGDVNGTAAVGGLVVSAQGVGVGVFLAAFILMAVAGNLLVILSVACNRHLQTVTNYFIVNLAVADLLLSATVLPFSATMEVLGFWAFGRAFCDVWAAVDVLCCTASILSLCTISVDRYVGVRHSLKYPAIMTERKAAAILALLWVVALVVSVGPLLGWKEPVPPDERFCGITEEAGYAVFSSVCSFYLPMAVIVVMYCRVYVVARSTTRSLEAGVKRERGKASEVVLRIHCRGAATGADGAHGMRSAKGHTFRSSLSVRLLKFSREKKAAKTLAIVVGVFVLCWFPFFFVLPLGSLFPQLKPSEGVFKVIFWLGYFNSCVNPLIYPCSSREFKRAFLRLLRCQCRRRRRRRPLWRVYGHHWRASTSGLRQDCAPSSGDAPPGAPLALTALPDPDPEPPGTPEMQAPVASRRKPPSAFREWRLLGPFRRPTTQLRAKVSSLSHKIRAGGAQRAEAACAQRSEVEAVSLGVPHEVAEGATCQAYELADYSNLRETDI

Compared with `COc1ccccc1N1CCN(CCn2c(=O)[nH]c3sccc3c2=O)CC1`, `COc1ccccc1N1CCN(CCn2c(=O)[nH]c3sc(C)c(-c4ccccc4)c3c2=O)CC1` is 1.5-fold higher in Ki: 0.308 nM for the first, 0.466 nM for the second. The first binds more tightly here.

Compared with `COc1ccccc1N1CCN(CCCn2c(=O)[nH]c3scc(-c4ccccc4)c3c2=O)CC1`, `CC(CN1CCN(c2cc(F)c(F)cc2F)CC1)N1C(=O)CC2(CCCC2)CC1=O` (single isomer, unassigned) is 5.5-fold lower in Ki: 7.15 nM for the first, 1.3 nM for the second.

biological target: T4, Alpha-1B adrenergic receptor (Rattus norvegicus, UniProt P15823); assay: In vitro functional activity at Alpha-1B adrenergic receptor in rat spleen; type: tissue-based; conditions: read-out: pA2 (converted)
T4 sequence (P15823 whole entry): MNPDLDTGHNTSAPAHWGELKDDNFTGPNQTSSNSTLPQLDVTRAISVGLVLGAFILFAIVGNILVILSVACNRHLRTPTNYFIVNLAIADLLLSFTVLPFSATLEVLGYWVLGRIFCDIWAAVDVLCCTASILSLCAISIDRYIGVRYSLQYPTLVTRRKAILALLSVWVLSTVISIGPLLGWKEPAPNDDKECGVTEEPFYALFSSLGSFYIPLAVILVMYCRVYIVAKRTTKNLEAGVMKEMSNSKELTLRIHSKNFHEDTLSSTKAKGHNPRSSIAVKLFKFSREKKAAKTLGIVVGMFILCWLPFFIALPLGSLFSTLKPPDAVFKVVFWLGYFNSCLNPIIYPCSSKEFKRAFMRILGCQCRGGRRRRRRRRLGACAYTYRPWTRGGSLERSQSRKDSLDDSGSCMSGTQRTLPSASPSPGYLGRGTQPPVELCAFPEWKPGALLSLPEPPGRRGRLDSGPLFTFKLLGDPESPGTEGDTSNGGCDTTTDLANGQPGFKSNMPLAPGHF

In the case of `COc1ccccc1N1CCN(CCN2C(=O)CC3(CCCC3)CC2=O)CC1` [BMY-7378], the Kb is reported as 42.7 nM.

biological target: T5, Alpha-1A adrenergic receptor (Bos taurus, UniProt P18130); assay: Binding affinity towards bovine Alpha-1A adrenergic receptor; conditions: not given
T5 sequence (P18130 whole entry): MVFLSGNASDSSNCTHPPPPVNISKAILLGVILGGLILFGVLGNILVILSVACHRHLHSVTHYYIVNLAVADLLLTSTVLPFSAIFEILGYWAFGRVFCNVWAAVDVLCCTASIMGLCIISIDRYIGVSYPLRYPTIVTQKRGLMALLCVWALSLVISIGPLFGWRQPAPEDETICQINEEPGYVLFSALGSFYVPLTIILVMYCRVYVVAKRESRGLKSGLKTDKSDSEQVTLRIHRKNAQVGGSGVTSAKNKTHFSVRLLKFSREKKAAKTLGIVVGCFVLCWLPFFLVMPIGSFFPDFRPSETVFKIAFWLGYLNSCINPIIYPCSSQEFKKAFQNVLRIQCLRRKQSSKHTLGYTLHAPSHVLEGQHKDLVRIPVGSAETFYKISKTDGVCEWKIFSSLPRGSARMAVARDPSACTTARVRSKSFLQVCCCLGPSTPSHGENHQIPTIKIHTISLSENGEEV

`COc1ccccc1N1CCN(CCn2c(=O)[nH]c3sccc3c2=O)CC1` and `COc1ccccc1N1CCN(CCn2c(=O)[nH]c3sc(-c4ccccc4)cc3c2=O)CC1` are within 1.5-fold of each other in Ki: 0.181 nM for the first, 0.248 nM for the second.

Going from `COc1ccccc1N1CCN(CCn2c(=O)[nH]c3sc(C)c(-c4ccccc4)c3c2=O)CC1` to `COc1ccccc1N1CCN(CCCn2c(=O)[nH]c3scc(-c4ccccc4)c3c2=O)CC1`, the Ki rises from 0.377 nM to 1.25 nM (3.3-fold).

Compared with `COc1ccccc1N1CCN(CCn2c(=O)c3c(-c4ccccc4)csc3n(C)c2=O)CC1`, `COc1ccccc1N1CCN(CCN2C(=O)CC3(CCCC3)CC2=O)CC1` [BMY-7378] is 99-fold higher in Ki: 0.436 nM for the first, 43 nM for the second.

biological target: T6, Alpha-1B adrenergic receptor (Homo sapiens, UniProt P35368); assay: Binding affinity towards human Alpha-1B adrenergic receptor; conditions: not given
T6 sequence (P35368 whole entry): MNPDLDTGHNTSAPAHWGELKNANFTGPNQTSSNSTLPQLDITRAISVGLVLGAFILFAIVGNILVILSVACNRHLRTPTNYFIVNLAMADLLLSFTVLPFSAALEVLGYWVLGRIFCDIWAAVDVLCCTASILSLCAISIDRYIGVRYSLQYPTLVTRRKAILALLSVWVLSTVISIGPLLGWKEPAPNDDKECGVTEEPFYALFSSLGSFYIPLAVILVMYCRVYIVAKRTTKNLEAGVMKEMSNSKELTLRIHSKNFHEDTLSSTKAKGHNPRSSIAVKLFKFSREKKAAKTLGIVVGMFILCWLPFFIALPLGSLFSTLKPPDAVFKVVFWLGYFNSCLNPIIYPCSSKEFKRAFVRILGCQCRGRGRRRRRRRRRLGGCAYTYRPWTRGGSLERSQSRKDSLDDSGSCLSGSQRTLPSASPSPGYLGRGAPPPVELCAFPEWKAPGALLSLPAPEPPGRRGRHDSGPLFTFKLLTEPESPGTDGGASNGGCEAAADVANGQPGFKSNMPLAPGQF

First: COc1ccccc1N1CCN(CCn2c(=O)[nH]c3sccc3c2=O)CC1
Second: COc1ccccc1N1CCN(CCn2c(=O)[nH]c3sc(-c4ccccc4)cc3c2=O)CC1
The Ki of the first is 1.5-fold lower: 1.22 nM for the first, 1.86 nM for the second.

Going from `COc1ccccc1N1CCN(CCn2c(=O)[nH]c3sc(C)c(-c4ccccc4)c3c2=O)CC1` to `COc1ccccc1N1CCN(CCCn2c(=O)[nH]c3scc(-c4ccccc4)c3c2=O)CC1`, the Ki rises from 3.7 nM to 15.8 nM (4.3-fold). The first binds more tightly here.

In the case of `COc1ccccc1N1CCN(CCN2C(=O)CC3(CCCC3)CC2=O)CC1` [BMY-7378], the Ki is reported as 94.3 nM.

biological target: T7, Alpha-1A adrenergic receptor (Homo sapiens, UniProt P35348); assay: Binding affinity for human Alpha-1A adrenergic receptor; conditions: not given
T7 sequence (P35348 whole entry): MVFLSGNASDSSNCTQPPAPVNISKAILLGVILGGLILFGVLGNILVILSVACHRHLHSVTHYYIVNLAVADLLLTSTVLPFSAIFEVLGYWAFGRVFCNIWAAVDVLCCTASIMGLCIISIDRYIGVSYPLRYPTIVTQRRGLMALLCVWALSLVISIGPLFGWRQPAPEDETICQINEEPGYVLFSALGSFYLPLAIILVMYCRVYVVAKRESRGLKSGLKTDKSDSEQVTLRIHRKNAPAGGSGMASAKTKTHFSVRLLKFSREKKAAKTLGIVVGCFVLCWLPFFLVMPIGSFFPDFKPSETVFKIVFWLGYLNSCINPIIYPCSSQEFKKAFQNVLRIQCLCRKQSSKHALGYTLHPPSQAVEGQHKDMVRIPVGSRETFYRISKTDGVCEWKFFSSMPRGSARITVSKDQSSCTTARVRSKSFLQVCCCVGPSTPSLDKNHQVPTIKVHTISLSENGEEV

Compared with `COc1ccccc1N1CCN(CCn2c(=O)[nH]c3sccc3c2=O)CC1`, `COc1ccccc1N1CCN(CCn2c(=O)[nH]c3sc(-c4ccccc4)cc3c2=O)CC1` is 2.5-fold higher in Ki: 0.344 nM for the first, 0.868 nM for the second. The first binds more tightly here.

Compared with `COc1ccccc1N1CCN(CCn2c(=O)[nH]c3sc(C)c(-c4ccccc4)c3c2=O)CC1`, `COc1ccccc1N1CCN(CCCn2c(=O)[nH]c3scc(-c4ccccc4)c3c2=O)CC1` is 3.2-fold higher in Ki: 2.63 nM for the first, 8.49 nM for the second.

Compared with `COc1ccccc1N1CCN(CCn2c(=O)c3c(-c4ccccc4)csc3n(C)c2=O)CC1`, `CC(CN1CCN(c2cc(F)c(F)cc2F)CC1)N1C(=O)CC2(CCCC2)CC1=O` (single isomer, unassigned) is 4800-fold higher in Ki: 3.1 nM for the first, 14900 nM for the second. The first binds more tightly here.
